Target: T1, TRAP1 enzyme (Homo sapiens, UniProt Q12931)
T1 sequence (Q12931 60-704): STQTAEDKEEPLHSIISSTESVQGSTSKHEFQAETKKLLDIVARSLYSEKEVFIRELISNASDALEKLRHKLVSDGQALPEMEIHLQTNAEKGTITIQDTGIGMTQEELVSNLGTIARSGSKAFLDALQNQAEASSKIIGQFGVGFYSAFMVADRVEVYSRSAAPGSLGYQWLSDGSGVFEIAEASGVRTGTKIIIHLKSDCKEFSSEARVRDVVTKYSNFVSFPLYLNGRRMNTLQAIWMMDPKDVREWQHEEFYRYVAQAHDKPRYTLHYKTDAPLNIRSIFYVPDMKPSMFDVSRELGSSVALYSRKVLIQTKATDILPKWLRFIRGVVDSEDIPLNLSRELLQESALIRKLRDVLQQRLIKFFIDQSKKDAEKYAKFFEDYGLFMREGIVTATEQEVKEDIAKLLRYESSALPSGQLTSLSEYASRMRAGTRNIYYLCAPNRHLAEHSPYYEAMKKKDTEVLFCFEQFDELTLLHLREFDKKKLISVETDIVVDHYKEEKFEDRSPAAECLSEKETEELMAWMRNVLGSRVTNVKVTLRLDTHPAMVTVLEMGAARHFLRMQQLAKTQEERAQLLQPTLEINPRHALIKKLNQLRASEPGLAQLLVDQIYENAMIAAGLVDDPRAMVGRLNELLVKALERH
Assay: ADP Glo assay (ATPase activity of TRAP1)
Type: biochemical
Details: for EC50: 150 nM Trap1, 20 µM ATP, concentration for half maximal activation, read-out: ADP GLO DRC: GeoMean EC50; for Emax: read-out: ADP GLO DRC: Mean Emax
Protocol: Potency of test compounds to modulate the ATPase activity of TRAP1 enzyme was evaluated using ADP Glo assay. The assay is based on quantification of the ADP generated from ATP in the ATPase reaction. The assay is performed in two steps; first, after the ATPase reaction, an equal volume of ADP-Glo™ Reagent is added to terminate the ATPase reaction and deplete the remaining ATP. Second, the Kinase Detection Reagent is added to simultaneously convert ADP to ATP and allow the newly synthesized ATP to be measured using a luciferase/luciferin reaction.
All the assays were carried out in a 384-well Proxiplate. The buffer used was 25 mM Pipes pH-7.5, 40 mM KCl, 0.05 mM MgCl2, 0.025 % BSA, 0.316 mM EGTA, 0.003% Empigen, 0.01% Igepal. 150 nM Trap1 enzyme was incubated with various concentrations of the test compound (0.79 µM - 100 µM) at 37° C. for 30 mins (except in blank wells). 20 µM ATP was added to each well to start the reaction. The plate was spun for 1 min at 1200 rpm and then incubated at 37° C. for 60 mins. 5 µl of ADP Glo reagent was added to all the wells and spun the plate for 1 min at 1200 rpm and kept it on a shaker at ambient temperature for 60 mins. 10 µl of kinase detection mix was added to all the wells and the plate was read for Luminescence at 495 nm. The amount of ADP released was estimated from ATP/ADP standard curve generated at the same experimental conditions. Emax (Maximal percent activation) and EC50 (concentration for half maximal activation ) were estimated by fitting the dose response data to a sigmoidal curve fitting equation using Graphpad Prism software V. 8.

Structure (SMILES)	EC50	Emax (maximal percent activation)	ADP GLO DRC: Mean Emax (maximal percent activation)
Cc1ccncc1C(=O)Nc1ccc2c(c1)S(=O)(=O)N(c1ccc(Cl)cc1)CCO2 [Compound 1209, N-(2-(4-chlorophenyl)-1,1-Dioxido-3,4-Dihydro-2H-Benzo[b][1,4,5] Oxathiazepin-8-yl)-4-Methylnicotinamide]	30 to 100 µM	150 to 200%	–
Cc1ncoc1C(=O)Nc1ccc2c(c1)S(=O)(=O)N(c1ccc(Cl)cc1)CCO2 [Compound 1210, N-(2-(4-chlorophenyl)-1,1-Dioxido-3,4-Dihydro-2H-Benzo[b][1,4,5]Oxathiazepin-8-yl)-4-Methyloxazole-5-Carboxamide]	30 to 100 µM	> 200%	–
Cc1ccncc1C(=O)Nc1ccc2c(c1)S(=O)(=O)N(c1ccc(C(F)(F)F)cc1)CCO2 [Compound 1212, N-(1,1-Dioxido-2-(4-(Trifluoromethyl)Phenyl)-3,4-Dihydro-2H-Benzo[b][1,4,5]Oxathiazepin-8-yl)-4-Methylnicotinamide]	20 to 30 µM	150 to 200%	–
Cc1nc(C)c(C(=O)Nc2ccc3c(c2)S(=O)(=O)N(c2ccc(C(F)(F)F)cc2)CCO3)o1 [Compound 1974, N-(1,1-Dioxido-2-(4-(Trifluoromethyl)Phenyl)-3,4-Dihydro-2H-Benzo[b][1,4,5]Oxathiazepin-8-yl)-2,4-Dimethyloxazole-5-Carboxamide]	20 to 30 µM	150 to 200%	–
O=C(Nc1ccc2c(c1)S(=O)(=O)N(c1ccc(C(F)(F)F)cc1)CCO2)c1cnc[nH]1 [Compound 2075, N-(1,1-Dioxido-2-(4-(Trifluoromethyl) Phenyl)-3,4-Dihydro-2H-Benzo [b] [1,4,5] Oxathiazepin-8-yl)-1H-Imidazole-5-Carboxamide]	20 to 30 µM	150 to 200%	–
CC(C)c1ncsc1C(=O)Nc1ccc2c(c1)S(=O)(=O)N(c1ccc(C(F)(F)F)cc1)CCO2 [Compound 2080, N-(1,1-Dioxido-2-(4-(Trifluoromethyl)Phenyl)-3,4-Dihydro-2H-Benzo[b][1,4,5]Oxathiazepin-8-yl)-4-Isopropylthiazole-5-Carboxamide]	20 to 30 µM	129 to 149%	–
CC(C)c1scnc1C(=O)Nc1ccc2c(c1)S(=O)(=O)N(c1ccc(C(F)(F)F)cc1)CCO2 [Compound 2085, N-(1,1-Dioxido-2-(4-(Trifluoromethyl)phenyl)-3,4-Dihydro-2H-Benzo[b][1,4,5]Oxathiazepin-8-yl)-5-Isopropylthiazole-4-Carboxamide]	30 to 100 µM	150 to 200%	–
Cn1ccnc1C(=O)Nc1ccc2c(c1)S(=O)(=O)N(c1ccc(C(F)(F)F)cc1)CCO2 [Compound 2090, N-(1,1-Dioxido-2-(4-(Trifluoromethyl)Phenyl)-3,4-Dihydro-2H-Benzo[b][1,4,5]Oxathiazepin-8-yl)-1-Methyl-1H-Imidazole-2-Carboxamide]	< 20 µM	129 to 149%	–
Cc1ccccc1N1CCOc2ccc(NC(=O)c3ncoc3C)cc2S1(=O)=O [Compound 2096, N-(1,1-dioxido-2-(o-tolyl)-3,4-dihydro-2H-benzo[b][1,4,5]oxathiazepin-8-yl)-5-methyloxazole-4-carboxamide]	30 to 100 µM	150 to 200%	–
Cc1ocnc1C(=O)Nc1ccc2c(c1)S(=O)(=O)N(c1ccccc1)CCO2 [Compound 2135, N-(1,1-dioxido-2-phenyl-3,4-dihydro-2H-benzo[b][1,4,5]oxathiazepin-8-yl)-5-methyloxazole-4-carboxamide]	30 to 100 µM	150 to 200%	–
Cc1cc(C(=O)Nc2ccc3c(c2)S(=O)(=O)N(c2ccc(C(F)(F)F)cc2)CCO3)ccn1 [Compound 2172]	20 to 30 µM	150 to 200%	–
Cc1cc(C(=O)Nc2ccc3c(c2)S(=O)(=O)N(c2ccc(C(F)(F)F)cc2)CCO3)cc(C)n1 [Compound 2173]	< 20 µM	–	B (150-200%, inclusive)
Cc1ccc(C(=O)Nc2ccc3c(c2)S(=O)(=O)N(c2ccc(C(F)(F)F)cc2)CCO3)cn1 [Compound 2174]	20 to 30 µM	129 to 149%	–
O=C(Nc1ccc2c(c1)S(=O)(=O)N(c1ccc(C(F)(F)F)cc1)CCO2)c1ccncn1 [Compound 2175]	< 20 µM	129 to 149%	–
O=C(Nc1ccc2c(c1)S(=O)(=O)N(c1ccc(C(F)(F)F)cc1)CCO2)c1cnn2c1CCC2 [Compound 2179]	20 to 30 µM	150 to 200%	–
O=C(Nc1ccc2c(c1)S(=O)(=O)N(c1ccc(C(F)(F)F)cc1)CCO2)c1cncs1 [Compound 2180]	20 to 30 µM	150 to 200%	–
Cc1noc(C)c1C(=O)Nc1ccc2c(c1)S(=O)(=O)N(c1ccc(C(F)(F)F)cc1)CCO2 [Compound 2181]	< 20 µM	129 to 149%	–

Results, then the compound that gave them:

EC50	Emax (maximal percent activation)	ADP GLO DRC: Mean Emax (maximal percent activation)	Structure (SMILES)
< 20 µM	150 to 200%	–	Cc1ncoc1C(=O)Nc1ccc2c(c1)S(=O)(=O)N(c1ccc(C(F)(F)F)cc1)CCO2 [Compound 1190, N-(1,1-Dioxido-2-(4-(Trifluoromethyl)Phenyl)-3,4-Dihydro-2H-benzo[b][1,4,5]Oxathiazepin-8-yl)-4-Methyloxazole-5-Carboxamide]
< 20 µM	129 to 149%	–	Cc1ocnc1C(=O)Nc1ccc2c(c1)S(=O)(=O)N(c1ccc(C(F)(F)F)cc1)CCO2 [Compound 1975, N-(1,1-Dioxido-2-(4-(Trifluoromethyl)Phenyl)-3,4-Dihydro-2H-Benzo[b][1,4,5]Oxathiazepin-8-yl)-5-Methyloxazole-4-Carboxamide]
30 to 100 µM	150 to 200%	–	O=C(Nc1ccc2c(c1)S(=O)(=O)N(c1ccc(C(F)(F)F)cc1)CCO2)c1cocn1 [Compound 1976, N-(1,1-Dioxido-2-(4-(Trifluoromethyl)Phenyl)-3,4-Dihydro-2H-Benzo[b][1,4,5]Oxathiazepin-8-yl)Oxazole-4-Carboxamide]
30 to 100 µM	> 200%	–	Cc1ncoc1C(=O)Nc1ccc2c(c1)S(=O)(=O)N(c1ccc(C(F)(F)F)cc1)CCCO2 [Compound 1989, N-(1,1-Dioxido-2-(4-(Trifluoromethyl) Phenyl)-2,3,4,5-Tetrahydrobenzo[b][1,4,5]Oxathiazocin-9-yl)-4-Methyloxazole-5-Carboxamide]
20 to 30 µM	150 to 200%	–	Cc1nc(C(=O)Nc2ccc3c(c2)S(=O)(=O)N(c2ccc(C(F)(F)F)cc2)CCO3)co1 [Compound 1992, N-(1,1-Dioxido-2-(4-(trifluoromethyl)Phenyl)-3,4-Dihydro-2H-Benzo[b][1,4,5]Oxathiazepin-8-yl)-2-Methyloxazole-4-Carboxamide]
30 to 100 µM	> 200%	–	O=C(Nc1ccc2c(c1)S(=O)(=O)N(c1ccc(C(F)(F)F)cc1)CCO2)c1cnco1 [Compound 1994, n-(1,1-Dioxido-2-(4-(Trifluoromethyl) Phenyl)-3,4-Dihydro-2H-Benzo[b][1,4,5]Oxathiazepin-8-yl)Oxazole-5-Carboxamide]
< 20 µM	150 to 200%	–	Cc1ncsc1C(=O)Nc1ccc2c(c1)S(=O)(=O)N(c1ccc(C(F)(F)F)cc1)CCO2 [Compound 2058, N-(1,1-Dioxido-2-(4-(Trifluoromethyl)Phenyl)-3,4-Dihydro-2H-Benzo[b][1,4,5]Oxathiazepin-8-yl)-4-Methylthiazole-5-Carboxamide]
30 to 100 µM	150 to 200%	–	COc1ccc(N2CCOc3ccc(NC(=O)c4ncoc4C)cc3S2(=O)=O)cc1 [Compound 2167, N-(2-(4-methoxyphenyl)-1,1-dioxido-3,4-dihydro-2H-benzo[b][1,4,5]oxathiazepin-8-yl)-5-methyloxazole-4-carboxamide]

Source: patent US20230218632A1, “CYCLIC SULFONAMIDE DERIVATIVES AS TRAP1 MODULATORS AND USES THEREOF” (Amathus Therapeutics, Inc., priority 2020, published 2023)
